Values quoted from earlier work in patent US6342488B1, “Phosphonorisperidone and sulforisperidone compositions and methods” (priority 1998, dated 2002).

Conditions: condition associated with torsades de pointes

Cc1nc2n(c(=O)c1CCN1CCC(c3noc4cc(F)ccc34)CC1)CCCC2O (centres unmarked) [hydroxyrisperidone, 9-hydroxyrisperidone]
prolongation of QT interval: implicated in a prolongation of QT interval

Cc1nc2n(c(=O)c1CCN1CCC(c3noc4cc(F)ccc34)CC1)CCCC2 [risperidone, Risperidone]
prolongation of QT interval: implicated in a prolongation of QT interval
